Here are results for 2 molecules from patent US20220120753A1, “METHOD FOR DETERMINING PROGNOSIS OF CANCER” (The University of Tokyo, priority 2018, published 2022).

Assay [1] relates to ERα-dependent transcription. Nature of the assay: qPCR of ERα target gene transcripts (EBAG9, GREB1) in MCF-7 cells. It is filed as cell-based, human. The method, then: (§1) Using total RNA derived from individual cells recovered over time, qPCR was carried out. […] Using total RNA prepared from the treated cells, qPCR was carried out. […] Using the nucleus extract, immunoprecipitation and immunoblotting were carried out.
Using total RNA prepared from the cells over time, qPCR was carried out.
(§2) Total RNA was prepared from the cells treated with various drugs, and qPCR was carried out.
The cells were washed with PBS three times, and were then cultured in phenol red-non-added DMEM (supplemented with 5% charcoal-stripped FBS) for 72 hours.
(§3) Quantitative RT-PCR was carried out according to the method described in Johmura et al., Molecular Cell 55: 73-84, 2014. Total RNA was extracted using ISOGEN II (Wako), and using this as a template, cDNA was synthesized using SuperScript II cDNA synthesis kit (Invitrogen). PCR amplification was carried out in a 96-well optical reaction plate, using Power SYBR Green PCR Master Mix (Applied Biosystems). The relative expression ratio of individual genes was normalized with respect to the expression level of GAPDH.
(Quantitative PCR measures a nucleic acid by following its amplification.)

The test system of assay [2] is T47D cells. Nature of the assay: Colony formation assay, T47D cells. The assay is classed as cell-based, human. The settings on record: Fbxo22-knocked-out T47D cells in the presence of E2 and 4-OHT, compared with control cells. The procedure:
The cells (5×10^2) were seeded on a 6-well plate, and were then cultured for 2 weeks. Thereafter, colonies were immobilized with methanol/acetic acid (1:1) for 15 minutes, and were then stained in 20% methanol/PBS containing 0.4% trypan blue (Sigma) for 15 minutes, followed by counting.

Assay [3] has as its system FLAG-Fbxo22 binding to ERα. The method, then:
(§4) Immunoprecipitation and immunoblotting were carried out according to the method described in Johmura et al., Molecular Cell 55: 73-84, 2014. The cells were dissolved in a TBSN buffer (20 mM Tris-Cl (pH 8.0), 150 mM NaCl, 0.5% NP-40, 5 mM EGTA, 1.5 mM EDTA, and 0.5 mM Na3VO4). The obtained cell lysate was centrifuged at 4° C. at 15,000×g for 20 minutes, and was then used in immunoprecipitation using an antibody.

Assay [4] concerns MCF-7 cells. Kind of assay: Colony formation assay, MCF-7 cells. It is filed as cell-based, human. The procedure: Representative colony images (upper view) and the results of the assay are shown. […] Ki-67-positive and cleaved caspase 3-positive cells were counted, and the counted numbers were then normalized with respect to the cell nucleus in each section. *p<0.05, ***p<0.05. The cells (5×10^2) were seeded on a 6-well plate, and were then cultured for 2 weeks. Thereafter, colonies were immobilized with methanol/acetic acid (1:1) for 15 minutes, and were then stained in 20% methanol/PBS containing 0.4% trypan blue (Sigma) for 15 minutes, followed by counting.

Assay [5] relates to ERα. The settings on record: U2OS cells, Fbxo22 not expressed. The method, then:
(§5) The obtained cells were immunostained with anti-FLAG antibodies. Representative images are shown.
as §3

The subject of assay [6] is CFP-LacER, YFP-SRC-1 and FLAG-KDM4B foci. The settings on record: in the presence of E2 and 4-OHT. The procedure: as §5
U205-LacO-I-SceI-TetO cells were cultured in a glass bottom dish (Iwaki) on the stage of BZ-9000 (Keyence) equipped with an environmental chamber (Keyence). The microscopic image was analyzed with BZ-9000 software.
In order to immobilize ERα on a Lac operator array stably incorporated into living cells, using a CFP-tagged lac receptor-ERα chimeric protein (CFP-LacER), accumulation of YFP-SRC-1 and KDM4B in an ERα-immobilized position was examined.

Assay [7] concerns ERα complex with KDM4B and SRC-3. The method, then:
as §1, §5, §2, §4
Regarding immunoprecipitation of ERα and KDM4B, a nuclear extract was prepared according to the method described in Hirokawa et al., Cancer Res. 74: 3880-3889, 2014. Cell pellets were suspended in buffer A (10 mM Hepes-KOH pH 7.9, 10 mM KCl, 1.5 mM MgCl2, 0.5 mM DTT, 0.5 mM PMSF, and protease inhibitor cocktail (Nakalai Tesque)) having five times the volume of the cell pellets, and the suspension was then incubated on ice for 5 minutes. Thereafter, the cells were centrifuged at 4° C. at 500×g for 5 minutes, and the obtained cell pellets were then suspended in buffer A having two times the volume of the cell pellets for homogenization. The homogenized cell suspension was centrifuged at 4° C. at 4,000×g for 5 minutes, and a cell nucleus was recovered in a precipitate. To the recovered nucleus, an equal amount of buffer B (20 mM Hepes-KOH pH 7.9, 600 mM KCl, 1.5 mM MgCl2, 0.2 mM EDTA, 25% glycerol, 0.5 mM DTT, 0.5 mM PMSF, and protease inhibitor cocktail) was added and suspended, and the obtained mixture was then blended at 4° C. for 30 minutes, using a rotator. The nuclear extract was centrifuged at 4° C. at 16,000×g for 15 minutes, and was then recovered in a supernatant. The nuclear extract was dialyzed against buffer C (20 mM Hepes-KOH pH 7.9, 100 mM KCl, 0.2 mM EDTA, 20% glycerol, 0.5 mM DTT, and 0.5 mM PMSF). After completion of the dialysis, the nuclear extract was centrifuged at 4° C. at 16,000×g for 30 minutes, and the remaining precipitate was then eliminated.
A protein (20 to 50 μg) was separated from the total cell lysate by SDS-PAGE, and was then transferred into a PVDF membrane (Millipore), which was then used in immunoblotting using various types of antibodies.

For assay [8], the system named is ERα. Nature of the assay: ChIP-Seq analysis of ERα binding in MCF-7 cells. The settings on record: for ERα accumulation peaks detected: 2 hours, E2 line = E2 (10 nM), 4-OHT line = E2+4-OHT. The assay is classed as cell-based, human. An excerpt:
Thereafter, DNA was extracted using a DNA purification column.

Assay [9] deals with T47D breast cancer cells. Kind of assay: T47D cells transplanted into the mammary gland fat pad of NOD/Scid mice. The assay is classed as in vivo, mouse. The settings on record: NOD/Scid mice with Fbxo22-knocked-out T47D cells treated with 4-OHT pellets, compared with mice with control cells. The method, then: Representative colony images (upper view) and the results of the assay are shown. […] Ki-67-positive and cleaved caspase 3-positive cells were counted, and the counted numbers were then normalized with respect to the cell nucleus in each section. *p<0.05, ***p<0.05. […] Thereafter, the cells were treated with trypsin, were then suspended in PBS, and were then mixed with Matrigel (CORNING 354230) at a mixing ratio of 1:1. […] Six weeks later, the mice were euthanized, the tumor was then excised, and the size of the tumor was then measured. Thereafter, the tumor was fixed with formalin and was then embedded in paraffin, and an HE stain slide glass was produced. The size of a tumor was evaluated as follows: V=(length×width×height×0.5326) mm^3. All of the mice were fed under a specific pathogen-free environment, and were treated in accordance with Animal Experiment Guidelines, Graduate School of Medicine and Faculty of Medicine, The University of Tokyo.

Assay [10] relates to KDM4B forming a complex with ERα.
Chain of KDM4B forming a complex with ERα (P03372 whole entry, one chain of several): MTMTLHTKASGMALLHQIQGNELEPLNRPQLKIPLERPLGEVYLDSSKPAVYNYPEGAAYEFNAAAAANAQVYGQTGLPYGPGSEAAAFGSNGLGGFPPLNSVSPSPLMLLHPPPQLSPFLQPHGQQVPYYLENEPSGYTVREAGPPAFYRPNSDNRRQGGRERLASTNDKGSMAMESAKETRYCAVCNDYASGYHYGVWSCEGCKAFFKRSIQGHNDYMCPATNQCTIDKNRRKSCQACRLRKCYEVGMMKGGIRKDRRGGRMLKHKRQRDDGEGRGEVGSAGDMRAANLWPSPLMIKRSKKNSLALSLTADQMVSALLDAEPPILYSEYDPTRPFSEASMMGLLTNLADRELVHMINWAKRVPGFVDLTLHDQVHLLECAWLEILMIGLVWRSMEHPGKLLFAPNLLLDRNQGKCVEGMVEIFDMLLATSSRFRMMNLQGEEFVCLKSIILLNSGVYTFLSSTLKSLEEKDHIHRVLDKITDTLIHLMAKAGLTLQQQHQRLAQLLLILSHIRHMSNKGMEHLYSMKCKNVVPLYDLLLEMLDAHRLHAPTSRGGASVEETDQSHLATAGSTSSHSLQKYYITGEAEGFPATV
Assay [11] concerns ERα-positive breast cancer. The following applies: cited from earlier work.
Assay [12] has as its system ERα-positive/HER2-negative breast cancer. Kind of assay: Relapse-free survival of ERα-positive/HER2-negative breast cancer patients stratified by Fbxo22. The settings on record: patient group that had undergone the TAM treatment. The assay is classed as in vivo, human. An excerpt:
FIGS. 9A and 9B show representative immunohistochemical staining images of a normal mammary gland (FIG. 9A), an Fbxo22-positive mammary gland of human breast cancer (FIG. 9B, left view), and an Fbxo22-negative mammary gland (FIG. 9B, right view). Scale bar: 20 μm. FIGS. 9C to 9F show Kaplan-Meier survival curves formed by stratifying ERα-positive/HER2-negative breast cancer (FIG. 9C), Luminal A (low Ki-67) breast cancer (FIG. 9D), lymph node metastasis-negative breast cancer (FIG. 9E), and tamoxifen-administered breast cancer (FIG. 9F) by the expression of Fbxo22. The P value and the hazard ratio were calculated according to a log-rank test.
Formalin fixing, paraffin embedding, core needle aspiration biopsy cytology panels, and the clinical data thereof, which were derived from 163 cases of continuously treated T2 (diameter: 2 to 5 cm) ERα-positive/HER-2-negative primary breast cancers, were obtained from patients who underwent surgery at St. Marianna University School of Medicine Hospital from 2005 to 2009. […] A tissue section was incubated with anti-Fbxo22 antibody (GTX117774, GeneTex) used as a primary antibody, which was diluted to 1:200, and was then detected using an HRP-polymer-labeled secondary antibody (Histofine Simple Stain MAX PO (multi), Nichirei, Japan). […] The Fbxo22-positive cells were evaluated according to a blind test conducted by two pathologist. […]

Read-outs that look alike come from different tables or passages of the source.

Chain of CFP-LacER, YFP-SRC-1 and FLAG-KDM4B foci (P03372 311-547 limits assumed): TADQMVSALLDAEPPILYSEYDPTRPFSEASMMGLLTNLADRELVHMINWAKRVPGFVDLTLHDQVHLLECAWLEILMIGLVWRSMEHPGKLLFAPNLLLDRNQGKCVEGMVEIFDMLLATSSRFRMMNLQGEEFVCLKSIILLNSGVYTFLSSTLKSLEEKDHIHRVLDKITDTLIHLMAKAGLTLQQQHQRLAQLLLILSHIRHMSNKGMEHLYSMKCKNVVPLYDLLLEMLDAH
Chain of ERα complex with KDM4B and SRC-3 (P03372 whole entry, one chain of several): as the sequence (P03372 whole entry, one chain of several) above
Chain of FLAG-Fbxo22 binding to ERα (P03372 whole entry): as the sequence (P03372 whole entry, one chain of several) above

For 4-hydroxytamoxifen [4-OHT], the “antagonistic activity of 4-OHT on transcription of EBAG9 and GREB1” value in [1] (Fbxo22-depleted MCF-7 cells) was “suppressed”. Also, in assay [1] (MCF-7, E2-depleted 72 h, E2 10 nM, 4-OHT 100 nM added 6 hours after E2), the “time after addition of 4-OHT at which transcript levels of GREB1 and EBAG1 became minimum” value is “Six”. Also, the “transcription of EBAG9 and GREB1” value in assay [1] (control MCF-7 cells stimulated by E2, treated with 4-OHT) is recorded as “strongly suppressed”. Also, the colony formation result in assay [2] was “significantly promoted”. The “FLAG-Fbxo22 binding to ERα” value in assay [3] is listed as “recovered (increased)”. For the same molecule, the “proliferation-suppressing effect of 4-OHT” value in assay [4] (Fbxo22-depleted MCF-7 cells) is “reduced”; in assay [4] (Fbxo22-depleted MCF-7 cells with Fbxo22 re-expressed (FLAG-Fbxo22)) it was “recovered”. The “proliferation (colony formation) in the presence of E2” value in assay [4] (control MCF-7 cells, E2 10 nM, 4-OHT 100 nM) was “completely suppressed”. The “antagonistic activity of 4-OHT” value in assay [5] (wild-type ERα expressed, stimulated by E2) is “suppressed”; in assay [5] (Δ44 ERα expressed), “observed”. The “colocalization of FLAG-KDM4B with CFP-LacER and YFP-SRC-1” value in assay [6] (Fbxo22-depleted cells) is “colocalized”; in assay [6] (control cells), “not observed”. In addition, the “cofactor dynamics (KDM4B/SRC-3 dissociation, N-CoR interaction with ERα)” value in assay [7] (Fbxo22-depleted MCF-7 cells, E2 then 4-OHT) is recorded as “not observed”. For the same molecule, the “complex of ERα with KDM4B and SRC-3” value in assay [7] (control MCF-7 cells stimulated by E2, then 4-OHT) is recorded as “dissociated”. Moreover, the figures for the “ERα accumulation peaks detected” value in assay [8] (Fbxo22-depleted MCF-7 cells) and in assay [8] (wild-type/control MCF-7 cells) were 19,924 and 26,751, respectively. Besides, in [8] (MCF-7 cells, E2+4-OHT versus E2), the “interaction of ERα with a target region” value is “does not affect”. Moreover, the “accumulation of ERα in the promoter regions of GREB1 and IGFBP4 genes” value in [8] (control and Fbxo22-depleted MCF-7 cells, E2 line = E2, 4-OHT line = E2+4-OHT) is recorded as “maintained”. Besides, in [9], the “tumor growth (tumor volume)” value is given as “clear increase”. Moreover, the “ubiquitination of KDM4B forming a complex with ERα” value in [10] is reported as “recovered”.

For `CC/C(=C(\c1ccccc1)c1ccc(OCCN(C)C)cc1)c1ccccc1` [TAM, Tamoxifen], the “reduction of annual breast cancer mortality rate” value in [11] (TAM therapy) is “approximately 30%”. The “early breast cancer patients with a recurrence within 15 years” value in assay [11] (patients treated by TAM) was “approximately 25%”. In addition, in assay [12], the “prognosis (relapse-free survival) of Fbxo22-negative breast cancer” value is “extremely poor prognosis”.
